Data as given in patent US9540366B2, “Ring-fused heterocyclic compound” (Kyowa Hakko Kirin Co., Ltd., priority 2012, dated 2017).
pIC50: −log10 of the molar value. Like-named read-outs stand apart in the source and are kept apart here.

Target: T1, human Cav3.2 T-type Ca2+ channel (Homo sapiens, UniProt O95180)
T1 construct: expressed in transfected cells; host or cells: KJMGER8 cells (Namalwa cell-derived cell line)
Experiment: Inhibitory effect for intracellular calcium response via Cav3.2 T-type Ca2+ channels (FLIPR Calcium 3 Assay Kit)
Format: cell-based

T1 sequence (O95180 whole entry): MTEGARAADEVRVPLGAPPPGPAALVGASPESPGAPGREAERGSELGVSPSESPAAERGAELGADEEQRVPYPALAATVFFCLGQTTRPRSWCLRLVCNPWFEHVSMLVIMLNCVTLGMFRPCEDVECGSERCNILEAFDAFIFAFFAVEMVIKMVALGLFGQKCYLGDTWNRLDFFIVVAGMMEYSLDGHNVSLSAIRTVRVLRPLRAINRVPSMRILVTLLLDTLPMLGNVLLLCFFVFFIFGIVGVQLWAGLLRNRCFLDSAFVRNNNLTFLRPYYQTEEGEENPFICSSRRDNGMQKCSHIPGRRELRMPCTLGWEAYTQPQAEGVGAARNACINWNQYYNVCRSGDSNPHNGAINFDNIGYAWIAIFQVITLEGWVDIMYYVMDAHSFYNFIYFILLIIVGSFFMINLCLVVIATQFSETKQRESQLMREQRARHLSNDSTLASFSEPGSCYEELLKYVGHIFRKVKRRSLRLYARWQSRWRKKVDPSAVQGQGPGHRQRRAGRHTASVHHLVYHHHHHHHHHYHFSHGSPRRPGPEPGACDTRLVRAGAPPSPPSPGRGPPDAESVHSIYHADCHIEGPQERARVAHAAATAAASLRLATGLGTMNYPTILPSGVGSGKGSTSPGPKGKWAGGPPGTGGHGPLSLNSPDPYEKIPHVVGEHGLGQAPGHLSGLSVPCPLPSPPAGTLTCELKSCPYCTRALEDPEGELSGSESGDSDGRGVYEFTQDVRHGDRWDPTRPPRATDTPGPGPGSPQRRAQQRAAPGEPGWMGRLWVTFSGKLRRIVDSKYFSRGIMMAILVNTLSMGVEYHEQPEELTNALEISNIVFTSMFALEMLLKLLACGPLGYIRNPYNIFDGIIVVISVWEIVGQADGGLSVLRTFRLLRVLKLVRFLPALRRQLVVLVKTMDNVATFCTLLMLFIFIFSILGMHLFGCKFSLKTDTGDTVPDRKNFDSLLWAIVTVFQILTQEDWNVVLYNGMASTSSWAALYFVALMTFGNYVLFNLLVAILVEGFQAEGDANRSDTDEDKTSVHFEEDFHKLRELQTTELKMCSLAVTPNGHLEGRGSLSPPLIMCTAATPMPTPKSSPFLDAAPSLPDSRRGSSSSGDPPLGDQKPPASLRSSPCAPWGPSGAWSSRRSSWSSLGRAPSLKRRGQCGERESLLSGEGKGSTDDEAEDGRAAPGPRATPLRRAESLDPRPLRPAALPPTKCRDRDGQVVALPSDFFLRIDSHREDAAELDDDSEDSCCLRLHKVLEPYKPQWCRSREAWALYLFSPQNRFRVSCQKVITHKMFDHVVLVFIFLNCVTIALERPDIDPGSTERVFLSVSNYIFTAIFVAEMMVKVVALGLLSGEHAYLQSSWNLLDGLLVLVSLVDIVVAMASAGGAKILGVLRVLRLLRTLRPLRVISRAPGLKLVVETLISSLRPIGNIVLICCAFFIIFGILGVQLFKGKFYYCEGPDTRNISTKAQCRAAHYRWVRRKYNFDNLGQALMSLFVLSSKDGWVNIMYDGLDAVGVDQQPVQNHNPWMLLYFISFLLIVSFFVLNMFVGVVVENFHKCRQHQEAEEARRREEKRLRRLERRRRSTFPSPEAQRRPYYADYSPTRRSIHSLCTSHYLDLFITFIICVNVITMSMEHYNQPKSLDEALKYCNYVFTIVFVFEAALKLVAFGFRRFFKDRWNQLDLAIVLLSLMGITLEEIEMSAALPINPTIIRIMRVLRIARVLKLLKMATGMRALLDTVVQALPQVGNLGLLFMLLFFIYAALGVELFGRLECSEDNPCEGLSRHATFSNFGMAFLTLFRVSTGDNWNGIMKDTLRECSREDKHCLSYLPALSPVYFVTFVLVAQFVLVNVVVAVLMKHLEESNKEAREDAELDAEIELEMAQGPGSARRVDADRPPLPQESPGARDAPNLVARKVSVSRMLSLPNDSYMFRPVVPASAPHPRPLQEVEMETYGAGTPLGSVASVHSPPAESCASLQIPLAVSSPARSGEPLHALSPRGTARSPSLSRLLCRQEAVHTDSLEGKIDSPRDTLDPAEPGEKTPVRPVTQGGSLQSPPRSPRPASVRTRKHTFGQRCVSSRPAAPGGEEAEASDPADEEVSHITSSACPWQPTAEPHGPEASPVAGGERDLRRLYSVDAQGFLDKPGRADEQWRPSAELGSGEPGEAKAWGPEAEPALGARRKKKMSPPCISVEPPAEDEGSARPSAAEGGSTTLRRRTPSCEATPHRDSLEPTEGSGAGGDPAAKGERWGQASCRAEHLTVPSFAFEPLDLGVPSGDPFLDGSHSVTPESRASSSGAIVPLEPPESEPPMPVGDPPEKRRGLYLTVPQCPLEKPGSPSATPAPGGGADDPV

| SMILES | pIC50 (human Cav3.2-expressing KJMGER8 cells (Namalwa-derived), calcium response induced by 5 mmol/L CaCl2, 3 μmol/L mibefradil as reference, read-out: IC50 for the human Cav3.2 T-type Ca2+ current) | pIC50 |
| --- | --- | --- |
| Cc1cc(C(=O)Nc2ccccc2)cc2nc(C(C)O)c(CC3CCC(F)(F)CC3)n12 (stereo not drawn) [Compound 20, 3-[(4,4-Difluorocyclohexyl)methyl]-2-(1-hydroxyethyl)-5-methyl-N-phenylimidazo[1,2-a]pyridine-7-carboxamide] | ≥ 7.00 |  |
| O=C(Nc1ccccc1)c1cc2nc(C3CC(F)(F)C3)c(CC3CCC(F)(F)CC3)n2cc1Cl [Compound 7, 6-Chloro-2-(3,3-difluorocyclobutyl)-3-[(4,4-difluorocyclohexyl)methyl]-N-phenylimidazo[1,2-a]pyridine-7-carboxamide] |  | ≥ 7.00 |
| O=C(NCC(=O)N1CC(F)(F)C1)c1cc(Cl)n2c(CC3CCC(F)(F)CC3)c(C(F)(F)F)nc2c1 [Compound 172, 5-Chloro-N-[2-(3,3-difluoroazetidin-1-yl)-2-oxoethyl]-3-[(4,4-difluorocyclohexyl)methyl]-2-(trifluoromethyl)imidazo[1,2-a]pyridine-7-carboxamide] |  | ≥ 7.00 |
| Cc1cc(C(=O)NC2CC(F)(F)C2)cc2nc(C(C)(C)O)c(CC3CCC(F)(F)CC3)n12 [Compound 10, N-(3,3-Difluorocyclobutyl)-3-[(4,4-difluorocyclohexyl)methyl]-2-(2-hydroxypropan-2-yl)-5-methylimidazo[1,2-a]pyridine-7-carboxamide] |  | ≥ 7.00 |
| CC(C)(C)OC(=O)NCCNC(=O)c1cc(Cl)n2c(CC3CCC(F)(F)CC3)c(C(F)(F)F)nc2c1 [Compound 115, tert-Butyl 2-{5-chloro-3-[(4,4-difluorocyclohexyl)methyl]-2-(trifluoromethyl)imidazo[1,2-a]pyridine-7-carboxamide}ethylcarbamate] |  | ≥ 7.00 |
| CC(C)(O)CNC(=O)c1cc(C#N)n2c(CC3CCC(F)(F)CC3)c(C(F)(F)F)nc2c1 [Compound 51, 5-Cyano-3-[(4,4-difluorocyclohexyl)methyl]-N-(2-hydroxy-2-methylpropyl)-2-(trifluoromethyl)imidazo[1,2-a]pyridine-7-carboxamide] |  | ≥ 7.00 |
| O=C(NCCCn1ccnc1)c1cc(Cl)n2c(CC3CCC(F)(F)CC3)c(C(F)(F)F)nc2c1 [Compound 100, N-[3-(1H-Imidazol-1-yl)propyl]-5-chloro-3-[(4,4-difluorocyclohexyl)methyl]-2-(trifluoromethyl)imidazo[1,2-a]pyridine-7-carboxamide] |  | ≥ 7.00 |
| O=C(NCC1(O)CC1)c1cc(Cl)n2c(CC3CCC(F)(F)CC3)c(C(F)(F)F)nc2c1 [Compound 125, 5-Chloro-3-[(4,4-difluorocyclohexyl)methyl]-N-[(1-hydroxycyclopropyl)methyl]-2-(trifluoromethyl)imidazo[1,2-a]pyridine-7-carboxamide] |  | ≥ 7.00 |
| Cc1cc(C(O)C(O)c2ccccc2)cc2nc(C(F)(F)F)c(CC3CCC(F)(F)CC3)n12 (stereo not drawn) [Compound 94, 1-{3-[(4,4-Difluorocyclohexyl)methyl]-5-methyl-2-(trifluoromethyl)imidazo[1,2-a]pyridin-7-yl}-2-phenylethane-1,2-diol] |  | ≥ 7.00 |
| O=C(NC1CC(CO)(CO)C1)c1cc(Cl)n2c(CC3CCC(F)(F)CC3)c(C(F)(F)F)nc2c1 [Compound 95, N-[3,3-Bis(hydroxymethyl)cyclobutyl]-5-chloro-3-[(4,4-difluorocyclohexyl)methyl]-2-(trifluoromethyl)imidazo[1,2-a]pyridine-7-carboxamide] |  | ≥ 7.00 |
| COc1c(C(=O)NC2CCOCC2)cc(C)n2c(CC3CCC(F)(F)CC3)c(C(F)(F)F)nc12 [Compound 133, 3-[(4,4-Difluorocyclohexyl)methyl]-8-methoxy-5-methyl-N-(tetrahydro-2H-pyran-4-yl)-2-(trifluoromethyl)imidazo[1,2-a]pyridine-7-carboxamide] |  | ≥ 7.00 |
| CC1(CNC(=O)c2cc(C#N)n3c(CC4CCC(F)(F)CC4)c(C(F)(F)F)nc3c2)CCCO1 (stereo not drawn) [Compound 2, 5-Cyano-3-[(4,4-difluorocyclohexyl)methyl]-N-[(2-methyltetrahydrofuran-2-yl)methyl]-2-(trifluoromethyl)imidazo[1,2-a]pyridine-7-carboxamide] |  | ≥ 7.00 |
